Assays:
Type in all cases: in vivo
[1] = system: Italian ryegrass (Lolium mutiflorum); assay: Test C preemergence, visual plant response rating
Outline: (§1)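 Compounds in a non-phytotoxic solvent with surfactant were applied as a directed soil spray preemergence or to 2–10 cm, one- to two-leaf plants postemergence, in loam–sand soil. After about 10 d in a greenhouse, injury was visually rated against untreated controls on a 0–100 scale (100 = complete control).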

[2] = system: barnyardgrass (Echinochloa crus-galli); assay: Test C preemergence, visual plant response rating
Outline: as §1

[3] = system: foxtail, giant (giant foxtail, Setaria faberi); assay: Test C preemergence, visual plant response rating
Outline: as §1

kochia (Bassia scoparia) [4] = assay: Test C preemergence, visual plant response rating
Outline: as §1

[5] = system: pigweed (Amaranthus retroflexus); assay: Test C preemergence, visual plant response rating
Outline: as §1

[6] = system: Italian ryegrass (Lolium mutiflorum); assay: Test C postemergence, visual plant response rating
Outline: as §1

[7] = system: barnyardgrass (Echinochloa crus-galli); assay: Test C postemergence, visual plant response rating
Outline: as §1

[8] = system: blackgrass (Alopecurus myosuroides); assay: Test C postemergence, visual plant response rating
Outline: as §1

corn (Zea mays) = assay: Test C postemergence, visual plant response rating
Outline: as §1

[9] = system: foxtail, giant (giant foxtail, Setaria faberi); assay: Test C postemergence, visual plant response rating
Outline: as §1

[10] = system: galium (catchweed bedstraw, Galium aparine); assay: Test C postemergence, visual plant response rating
Outline: as §1

kochia (Bassia scoparia) [11] = assay: Test C postemergence, visual plant response rating
Outline: as §1

[12] = system: pigweed (Amaranthus retroflexus); assay: Test C postemergence, visual plant response rating
Outline: as §1

[13] = system: ragweed (common ragweed, Ambrosia artemisiifolia); assay: Test C postemergence, visual plant response rating
Outline: as §1

[14] = system: wheat (Triticum aestivum); assay: Test C postemergence, visual plant response rating
Outline: as §1

[15] = system: barnyardgrass (Echinochloa crus-galli); assay: Test D flooded paddy test, visual plant response rating; conditions: 250 g ai/ha, scale 0 to 100 (0 no effect, 100 complete control), 13 to 15 d
Outline: (§2)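 2-leaf plants, flooded 3 cm, cpd into paddy water; greenhouse 13–15 d; visual rating vs controls, 0 = no effect, 100 = complete control; dash = no result.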

[16] = system: duck salad (Heteranthera limosa); assay: as above; conditions: 250 g ai/ha, scale 0 to 100 (0 no effect, 100 complete control), 13 to 15 d
Outline: as §2

rice (Oryza sativa) = assay: as above; conditions: 250 g ai/ha, scale 0 to 100 (0 no effect, 100 complete control), 13 to 15 d
Outline: as §2

[17] = system: sedge umbrella (small-flower umbrella sedge, Cyperus difformis); assay: as above; conditions: 250 g ai/ha, scale 0 to 100 (0 no effect, 100 complete control), 13 to 15 d
Outline: as §2

[18] = Test C, 31 g ai/ha, 0 is no effect, 100 is complete control
[19] = Test C, postemergence, 125 g ai/ha
[20] = Test C, 125 g ai/ha, 0 is no effect, 100 is complete control

Cc1nn(C)c(=O)c(/C(=N/OC(C)C)c2cc(Cl)cc(Cl)c2Cl)c1O [Compound 185]
Ryegrass, Italian plant response rating (0 to 100 scale) ([1]; 125 g ai/ha): 100 | Ryegrass, Italian plant response rating (0 to 100 scale) [1, 18]: 10 | Barnyardgrass plant response rating (0 to 100 scale) ([2]; 125 g ai/ha): 70 | Barnyardgrass plant response rating (0 to 100 scale) [2, 18]: 0 | Foxtail, Giant plant response rating (0 to 100 scale) ([3]; 125 g ai/ha): 100 | Foxtail, Giant plant response rating (0 to 100 scale) [3, 18]: 90 | Kochia plant response rating (0 to 100 scale) (kochia (Bassia scoparia) [4]; 125 g ai/ha): 50 | Kochia plant response rating (0 to 100 scale) (kochia (Bassia scoparia) [4]; [18]): 0 | Pigweed plant response rating (0 to 100 scale) ([5]; 125 g ai/ha): 100 | Pigweed plant response rating (0 to 100 scale) [5, 18]: 70 | Ryegrass, Italian plant response rating (0 to 100 scale) ([6]; Postemergence, 31 g ai/ha): 70 | Ryegrass, Italian plant response rating (0 to 100 scale) [6, 19]: 100 | Barnyardgrass plant response rating (0 to 100 scale) ([7]; Postemergence, 31 g ai/ha): 10 | Barnyardgrass plant response rating (0 to 100 scale) [7, 19]: 60 | Blackgrass plant response rating (0 to 100 scale) ([8]; Postemergence, 31 g ai/ha): 10 | Blackgrass plant response rating (0 to 100 scale) [8, 19]: 30 | Corn plant response rating (0 to 100 scale) (corn (Zea mays); Postemergence, 31 g ai/ha): 0 | Corn plant response rating (0 to 100 scale) (corn (Zea mays); [19]): 20 | Foxtail, Giant plant response rating (0 to 100 scale) ([9]; Postemergence, 31 g ai/ha): 60 | Foxtail, Giant plant response rating (0 to 100 scale) [9, 19]: 90 | Galium plant response rating (0 to 100 scale) ([10]; Postemergence, 31 g ai/ha): 70 | Galium plant response rating (0 to 100 scale) [10, 19]: 100 | Kochia plant response rating (0 to 100 scale) (kochia (Bassia scoparia) [11]; Postemergence, 31 g ai/ha): 10 | Kochia plant response rating (0 to 100 scale) (kochia (Bassia scoparia) [11]; [19]): 50 | Pigweed plant response rating (0 to 100 scale) ([12]; Postemergence, 31 g ai/ha): 40 | Pigweed plant response rating (0 to 100 scale) [12, 19]: 100 | Ragweed plant response rating (0 to 100 scale) ([13]; Postemergence, 31 g ai/ha): 90 | Ragweed plant response rating (0 to 100 scale) [13, 19]: 100 | Wheat plant response rating (0 to 100 scale) ([14]; Postemergence, 31 g ai/ha): 50 | Wheat plant response rating (0 to 100 scale) [14, 19]: 80 | Plant response rating, Barnyardgrass (Flood) [15]: 45 | Plant response rating, Ducksalad (Flood) [16]: 85 | Plant response rating, Rice (Flood) (rice (Oryza sativa)): 60 | Plant response rating, Sedge, Umbrella (Flood) [17]: 95

CCO/N=C(/c1c(O)c(Cl)nn(C)c1=O)c1cc(Br)cc2ccccc12 [Compound 236]
Ryegrass, Italian plant response rating (0 to 100 scale) [1, 18]: 0 | Ryegrass, Italian plant response rating (0 to 100 scale) [1, 20]: 20 | Barnyardgrass plant response rating (0 to 100 scale) [2, 18]: 90 | Barnyardgrass plant response rating (0 to 100 scale) [2, 20]: 90 | Foxtail, Giant plant response rating (0 to 100 scale) [3, 18]: 80 | Foxtail, Giant plant response rating (0 to 100 scale) [3, 20]: 100 | Kochia plant response rating (0 to 100 scale) (kochia (Bassia scoparia) [4]; [18]): 0 | Kochia plant response rating (0 to 100 scale) (kochia (Bassia scoparia) [4]; [20]): 40 | Pigweed plant response rating (0 to 100 scale) [5, 18]: 10 | Pigweed plant response rating (0 to 100 scale) [5, 20]: 70 | Ryegrass, Italian plant response rating (0 to 100 scale) ([6]; Postemergence, 31 g ai/ha): 0 | Ryegrass, Italian plant response rating (0 to 100 scale) [6, 19]: 20 | Barnyardgrass plant response rating (0 to 100 scale) ([7]; Postemergence, 31 g ai/ha): 70 | Barnyardgrass plant response rating (0 to 100 scale) [7, 19]: 90 | Blackgrass plant response rating (0 to 100 scale) ([8]; Postemergence, 31 g ai/ha): 0 | Blackgrass plant response rating (0 to 100 scale) [8, 19]: 30 | Corn plant response rating (0 to 100 scale) (corn (Zea mays); Postemergence, 31 g ai/ha): 20 | Corn plant response rating (0 to 100 scale) (corn (Zea mays); [19]): 30 | Foxtail, Giant plant response rating (0 to 100 scale) ([9]; Postemergence, 31 g ai/ha): 60 | Foxtail, Giant plant response rating (0 to 100 scale) [9, 19]: 90 | Galium plant response rating (0 to 100 scale) ([10]; Postemergence, 31 g ai/ha): 90 | Galium plant response rating (0 to 100 scale) [10, 19]: 100 | Kochia plant response rating (0 to 100 scale) (kochia (Bassia scoparia) [11]; Postemergence, 31 g ai/ha): 30 | Kochia plant response rating (0 to 100 scale) (kochia (Bassia scoparia) [11]; [19]): 50 | Pigweed plant response rating (0 to 100 scale) ([12]; Postemergence, 31 g ai/ha): 20 | Pigweed plant response rating (0 to 100 scale) [12, 19]: 60 | Ragweed plant response rating (0 to 100 scale) ([13]; Postemergence, 31 g ai/ha): 100 | Ragweed plant response rating (0 to 100 scale) [13, 19]: 100 | Wheat plant response rating (0 to 100 scale) ([14]; Postemergence, 31 g ai/ha): 0 | Wheat plant response rating (0 to 100 scale) [14, 19]: 0 | Plant response rating, Barnyardgrass (Flood) [15]: 35 | Plant response rating, Ducksalad (Flood) [16]: 70 | Plant response rating, Rice (Flood) (rice (Oryza sativa)): 0 | Plant response rating, Sedge, Umbrella (Flood) [17]: 85

C#CCO/N=C(/c1c(O)c(Cl)nn(C)c1=O)c1ccc(F)c2ccccc12 [Compound 205]
Ryegrass, Italian plant response rating (0 to 100 scale) [1, 18]: 20 | Ryegrass, Italian plant response rating (0 to 100 scale) [1, 20]: 100 | Barnyardgrass plant response rating (0 to 100 scale) [2, 18]: 70 | Barnyardgrass plant response rating (0 to 100 scale) [2, 20]: 100 | Foxtail, Giant plant response rating (0 to 100 scale) [3, 18]: 80 | Foxtail, Giant plant response rating (0 to 100 scale) [3, 20]: 100 | Kochia plant response rating (0 to 100 scale) (kochia (Bassia scoparia) [4]; [18]): 0 | Kochia plant response rating (0 to 100 scale) (kochia (Bassia scoparia) [4]; [20]): 70 | Pigweed plant response rating (0 to 100 scale) [5, 18]: 80 | Pigweed plant response rating (0 to 100 scale) [5, 20]: 100 | Ryegrass, Italian plant response rating (0 to 100 scale) ([6]; Postemergence, 31 g ai/ha): 70 | Ryegrass, Italian plant response rating (0 to 100 scale) [6, 19]: 100 | Barnyardgrass plant response rating (0 to 100 scale) ([7]; Postemergence, 31 g ai/ha): 70 | Barnyardgrass plant response rating (0 to 100 scale) [7, 19]: 90 | Blackgrass plant response rating (0 to 100 scale) ([8]; Postemergence, 31 g ai/ha): 20 | Blackgrass plant response rating (0 to 100 scale) [8, 19]: 80 | Corn plant response rating (0 to 100 scale) (corn (Zea mays); Postemergence, 31 g ai/ha): 0 | Corn plant response rating (0 to 100 scale) (corn (Zea mays); [19]): 40 | Foxtail, Giant plant response rating (0 to 100 scale) ([9]; Postemergence, 31 g ai/ha): 80 | Foxtail, Giant plant response rating (0 to 100 scale) [9, 19]: 100 | Galium plant response rating (0 to 100 scale) ([10]; Postemergence, 31 g ai/ha): 80 | Galium plant response rating (0 to 100 scale) [10, 19]: 90 | Kochia plant response rating (0 to 100 scale) (kochia (Bassia scoparia) [11]; Postemergence, 31 g ai/ha): 60 | Kochia plant response rating (0 to 100 scale) (kochia (Bassia scoparia) [11]; [19]): 70 | Pigweed plant response rating (0 to 100 scale) ([12]; Postemergence, 31 g ai/ha): 90 | Pigweed plant response rating (0 to 100 scale) [12, 19]: 100 | Ragweed plant response rating (0 to 100 scale) ([13]; Postemergence, 31 g ai/ha): 100 | Ragweed plant response rating (0 to 100 scale) [13, 19]: 100 | Wheat plant response rating (0 to 100 scale) ([14]; Postemergence, 31 g ai/ha): 20 | Wheat plant response rating (0 to 100 scale) [14, 19]: 70 | Plant response rating, Barnyardgrass (Flood) [15]: 0 | Plant response rating, Ducksalad (Flood) [16]: 0 | Plant response rating, Rice (Flood) (rice (Oryza sativa)): 0 | Plant response rating, Sedge, Umbrella (Flood) [17]: 0

— patent publication US20210045385A1, “PYRIDAZINONE-SUBSTITUTED KETOXIMES AS HERBICIDES” (FMC Corporation, priority 2018, published 2021)
